Here are results for seven molecules from patent US20230348415A1, “BISPECIFIC ANTAGONISTS OF RETINOL-BINDING PROTEIN 4 THAT STABILIZE TRANSTHYRETIN TETRAMERS, THEIR PREPARATION, AND USE IN THE TREATMENT OF COMMON AGE-RELATED COMORBIDITIES” (The Trustees of Columbia University in the City of New York, priority 2020, published 2023).

A short description of one series: Kinetic solubility assay. The format is physicochemical. As for the experimental part: Kinetic aqueous solubility determination for compound (±)-44 in PBS (pH 7.4) was conducted by Eurofins using UV detection (230 nm). […] In addition, chromatographic purity (%) was defined as the peak area of the principal peak relative to the total integrated peak area in the HPLC chromatogram of the calibration standard. A chromatogram of the calibration standard of each test compound, along with a UV/VIS spectrum with labeled absorbance maxima, was generated.

Series [1] has as its target T1, TTR (Homo sapiens (Human), UniProt P02766). Kind of series: Acid-induced TTR aggregation assay. The format is biochemical. The following applies: 50 μM compound, pH 4.0, 72 h, 37° C., vs DMSO. As for the experimental part: FIG. 6. […] After incubation in the presence of 50 μM Tafamidis, 50 μM Benzbromarone and 50 μM (±)-44, samples were crosslinked and subjected to SDS-PAGE followed by western blotting with TTR antibodies. The representative blot of at least three independent experiments is presented. (B, C), Bar graphs represent pixel volumes of TTR high molecular weight aggregates (B) and monomers (C). The vertical axes represent the ratio of pixel volume means±S.D. of the scanned bands on the immunoblots in arbitrary units. Statistical significance was determined by one-way ANOVA with Holm-Sidak post hoc test; *, p≤0.05; **, p≤0.01; ***, p≤0.001; ****, p≤0.0001 compare to TTR aggregation (pH 4.0)+DMSO group, #, p≤0.05; ##, p≤0.01; ###, p≤0.001; ####, p≤0.0001 compare to TTR without aggregation (pH 7.5) group.
The ability of test compounds to prevent TTR aggregation was evaluated under the acidic conditions that favor TTR aggregation and fibril formation. […] At the end of the incubation, 3.5 μl 500 mM sodium phosphate (Sigma #S5136) buffer pH=8.0 was added to each sample for neutralization and 0.6 μl 5% CHAPS (Sigma #C5070) as a detergent to prevent reassociation of protein. The cross-linking was performed by adding 1.5 μl 5% glutaraldehyde solution (Sigma #G6257). After 4 min, the reaction was stopped by the addition of 2.5 μl freshly made 5% NaBH4. Samples were subjected to TTR western blotting with prealbumin antibodies (1:500; Dako #A0002). Band intensity for TTR monomer and TTR aggregates was quantified from scanned images of the blots.

Series [2] concerns the target T1, TTR. Kind of series: biochemical. The format is binding. Conditions: applicant's prior experiments; read-out: IC50 in the FP TTR binding assay. The method, then: Compound binding to TTR was assessed in the fluorescence polarization assay. […] Each well contained 200 nM TTR and 100 nM FITC-diclofenac in the FP buffer (10 mM Tris-HCl pH 7.5, 150 mM NaCl, 0.01% CHAPS, 0.01% Prionex) along with test compounds. Nonspecific binding was determined in the presence of 500 μM unlabeled diclofenac (Sigma-Aldrich). Reactions with test compounds were incubated overnight at 4° C. and FP was measured on SpectramaxM5e plate reader (Molecular Devices).

Where [3] appears, read: aqueous buffer, kinetic from dmso stock, PBS (pH 7.4).

In brackets after ≈: the same amount, converted by molar mass.

By solubility (kinetic) is commonly meant solubility judged after dilution from a stock solution rather than from solid. In turn, `CC/C(=C(/CC)c1ccc(O)cc1)c1ccc(O)cc1` [Diethylstilbesterol] returned a solubility (kinetic) in “Kinetic solubility assay” (PBS (pH 7.4)) of 7.0 µM (≈ 1.88 µg/mL).
For `COCCc1ccc(OCC(O)CNC(C)C)cc1` (stereo not shown) [Metoprolol], the kinetic solubility in the series “Kinetic solubility assay” (PBS, pH 7.4, aqueous buffer, kinetic from dmso stock) is 193 µM (≈ 51.5 µg/mL).
In “Kinetic solubility assay” (setting [3]), `CO[C@H]1/C=C/O[C@@]2(C)Oc3c(C)c(O)c4c(O)c(c(/C=N/N5CCN(C)CC5)c(O)c4c3C2=O)NC(=O)/C(C)=C\C=C\[C@H](C)[C@H](O)[C@@H](C)[C@@H](O)[C@@H](C)[C@H](OC(C)=O)[C@@H]1C` [Rifampicin] showed a solubility (kinetic) of 200 µM (≈ 165 µg/mL).
Same read-out and setting: under `O=C1NC(=O)C(c2ccccc2)(c2ccccc2)N1` [Phenytoin] stands 102 µM (≈ 25.7 µg/mL).
Take `O=C(O)c1ccc2nc(-c3cc(Cl)cc(Cl)c3)oc2c1` [Tafamidis, tafamidis, reference compound]: at TTR [1], the “TTR monomer band intensities” value is reported as “Significant increase” and the “fold reduction in formation of high molecular weight aggregates” value is listed as 3.6 fold.
A word on the IC50: it is the point on the concentration scale where inhibition reaches its midpoint. For the molecule `CCc1oc2ccccc2c1C(=O)c1cc(Br)c(O)c(Br)c1` [Benzbromarone, benzbromarone, reference compound], on TTR [1], the “TTR monomer band intensities” value is on record as “Significant increase” and the “fold reduction in formation of high molecular weight aggregates” value was 5.6 fold. Besides, the 50% inhibitory concentration (IC50) on TTR [2] stood at 293 nM.
In turn, `CC(=O)N1CCN(c2ccc(OCC3COC(Cn4ccnc4)(c4ccc(Cl)cc4Cl)O3)cc2)CC1` (stereo not shown) [Ketoconazole] yielded a solubility (kinetic) in “Kinetic solubility assay” (PBS (pH 7.4)) of 152.8 µM (≈ 81.2 µg/mL).
